The subject of one assay is H0-1 cells. The assay can be described thus: Northern blotting analysis of steady-state mRNA levels. Type of assay: cell-based, human. To be noted: FIG. 1 concentrations; for c-jun and jun-B expression / c-myc expression: 96 hours. Here is the method:
Steady-state levels of specific mRNAs were determined by Northern blotting analysis of total RNA probed with appropriate ^32P-labeled gene probes as described previously (14-16). RNAs were analyzed from cells treated with inducer for 24 hours, treated for 24 hours with inducer followed by growth for 72 hours in the absence of inducer, or treated continuously for 96 hours with the inducer. The concentration of inducing compounds used were the same as those used for growth studies. The effect of conditioned medium on gene expression changes was determined by treating H0-1 cells for 24 hours with a 1:2 dilution of conditioned medium (equal volumes of conditioned medium and DMEM supplemented with 10% fetal bovine serum (DMEM-10) or for 96 hours with a 1:4 dilution of conditioned medium (1 vol. of conditioned medium to 3 vol. of DMEM-10). The probes used in the present study were specific for β-actin (17), γ-actin (17), c-jun (18), c-myc (19), fibronectin (20), gro/MGSA (21), HLA Class I antigen (22), HLA Class II antigen (HLA-DRβ) (22), α5 integrin (23), β1 integrin (24), ISG-15 (25), ISG-54 (25), jun-B (26), and tenascin (27). Northern blots were also probed with a ^32P-labeled GAPDH gene (15) to verify similar mRNA expression under the various experimental conditions. Following hybridization, the filters were washed and exposed for autoradiography.

The subject of the next assay is mda-7. As to the kind of experiment: mda-7 expression (Northern blotting, RT-PCR). Type of assay: cell-based, human. Conditions: H0-1; 96 hours; doses of FIG. 15 legend. On the procedure: (§1) The mass excision of the library was performed using ExAssist helper phage as described above. The SOLR strain of Escherichia coli and cDNA phagemids were mixed at 37° C. for 15 min and plated onto LB plates containing ampicillin and IPTG/X-gal. White colonies were chosen at random, isolated and grown in LB medium. Plasmid minireps and restriction enzyme digestions were performed to confirm the presence of inserts. The inserts were isolated and used as robes for Northern blotting analysis (5,25). […] Radiolabeled probes were generated by random oligonucleotide priming (25). Prehybridization, hybridization, posthybridization washes, and autoradiography were performed as described (5,18,25).

A further assay concerns mda-5. As to the kind of experiment: mda-5 expression (Northern blotting). Type of assay: cell-based, human. Conditions: H0-1; 96 hours; doses of FIG. 15 legend. Here is the method: as §1
Another assay relates to mda-8. As to the kind of experiment: mda-8 expression (Northern blotting). Type of assay: cell-based, human. Conditions: H0-1; 96 hours; doses of FIG. 15 legend. On the procedure: as §1
A further assay has as its system mda-4. As to the kind of experiment: mda-4 expression (Northern blotting). Type of assay: cell-based, human. Conditions: H0-1; 96 hours; doses of FIG. 15 legend. Here is the method:
as §1

In the next assay the test system is mda-9. The assay can be described thus: mda-9 expression (Northern blotting). To be noted: H0-1; 96 hours; doses of FIG. 15 legend. The format is cell-based, human. On the procedure:
as §1

The test system of assay [1] is H0-1 human melanoma cell line. The assay can be described thus: 96-h growth suppression (cell number by Coulter Counter). The format is cell-based. Conditions: H0-1 cells, degree of initial 96 hr growth suppression versus untreated control. Here is the method: FIG. 1A-B Effect of continuous exposure to various growth and differentiation modulating agents on the 96-h growth of the human melanoma cell line, H0-1. Cells were seeded at 5×10^4/35-mm tissue culture plate and 24 h later the medium was changed with the indicated compounds. Cell numbers were determined by Coulter Counter after 96-h growth. Further details can be found in Materials and Methods.
The H0-1 cell line is a melanotic melanoma derived from a person and was used between passage 100 and 125 (6,8,13). H0-1 cells were kindly provided by Dr. Beppino C. Giovanella, Stehlin Foundation for Cancer Research, Houston, Tex. Cultures were grown at 37° C. in a 95% air 5% CO2-humidified incubator in Dulbecco's modified Eagle's medium (DMEM) supplemented with 10% fetal bovine serum (DMEM-10) (Hyclone, Logan, Utah). H0-1 cells were maintained in the logarithmic stage of growth by subculturing (1:5 or 1:10) prior to confluency approximately every 4 to 5 days. […] Total cell numbers were determined after days 4, 7, 14, and 21, using a ZM Coulter Counter, and viable cell numbers were determined by trypan blue dye exclusion (6). […] Increases in cell number (two or more population doublings) after removal of the inducing agent(s) was considered reversible growth suppression. […] Conditioned medium was collected from treated cultures, contaminating cells were removed by centrifugation at 1000 rpm/10 min., and conditioned medium was stored at 4° C. until assayed for gene modulatory activity. Control conditioned medium was obtained as experimental conditioned medium from cells receiving only a medium change 24 hours after plating in the absence of test compound(s) and growth for 72 hours in DMEM-10.

The next assay has as its system mda-6. The assay can be described thus: mda-6 expression (Northern blotting). The format is cell-based, human. Conditions: H0-1; 96 hours; doses of FIG. 15 legend. Here is the method:
as §1
Total cytoplasmic RNA was isolated and Northern blotting hybridization was performed as described (Reddy et al., 1991; Su et al., 1991; Jiang et al., 1992). Ten μg of RNA was denatured with glyoxal/DMSO, electrophoresed on 1.0% agarose gels, transferred to nylon membranes and hybridized to a ^32P-labeled p53 probe (Baker et al., 1990). The nylon membrane was stripped and hybridized to a ^32P-labeled mda-6 probe (Jiang and Fisher, 1993) and then after a second stripping the membrane was hybridized to a ^32P-labeled rat GAPDH probe (Fort et al., 1985), as described previously (Reddy et al., 1991; Su et al., 1991; Jiang et al., 1992). Following hybridization, the filters were washed and exposed for autoradiography (Reddy et al., 1991; Su et al., 1991; Jiang et al., 1992). mda-6 and GAPDH gene expression were also determined by reverse transcription-polymerase chain reaction (RT-PCR) as described (Adollahi et al., 1991; Lin et al., 1994; Jiang et al., 1994b). Total cytoplasmic RNA was treated with 0.5 units DNase (Boehringer-Mannheim Biochemicals)/μg RNA in 15% glycerol, 10 mM Tris, pH 7.5, 2.5 mM MgCl2, 0.1 mM EDTA, 80 mM KCl, 1 mM CaCl2 and 1 unit/ml RNasin (Promega) at 30° C. for 10 min. RNA was extracted with phenol-chloroform, precipitated with sodium acetate/ethanol and RNA pellets were resuspended in diethylpyrocarbonate-treated H2O. One μg of total RNA was reverse transcribed with 200 units of murine leukemia virus reverse transcriptase (Bethesda Research Laboratories) in 20 μl containing 1 mM deoxyribonucleotide triphosphates, 4 mM MgCl2, 10 mM Tris, pH 8.3, 50 mM KCl, 0.001% gelatin and 0.2 μg oligo-dT primer. Samples were adjusted to 100 μl with buffer containing 0.2 mM deoxyribonucleotide triphosphates, 2 mM MgCl2, 10 mM Tris, pH 8.3, 50 mM KCl and 0.001% gelatin. Fifty pmol of each primer, 1.5 units Taq DNA polymerase (Perkin-Elmer Cetus) were added and samples were covered with mineral oil, heated at 95° C. for 5 min and subjected to 25 cycles of PCR in a Perkin-Elmer Thermal Cycler using 1 min denaturation at 94° C., 2 min annealing at 55° C. and 3 min polymerization at 72° C. After extraction with chloroform, 20 μl of products were electrophoresed, blotted onto nylon filters and hybridized with an mda-6 or GAPDH specific probe. The mda-6 primers were 5′ to 3′ […] (SEQ ID NO:26) and […] (SEQ ID NO:27)(corresponding to nt 1527 to 1546) (GenBank accession number U09579); and the GAPDH primers were 5′ to 3′ […] (SEQ ID NO:28)and […] (SEQ ID NO:29)(corresponding to nt 1070 to 1053) (Tokunaga et al., 1987).

The results in this text go back to US7507792B2, “MDA-7 proteins and methods of use thereof” (The Trustees of Columbia University In The City of New York, priority 1993, dated 2009).

Entries after “also recorded” stand apart in the source; their conditions may differ.

With `COc1c(C)c2c(c(O)c1C/C=C(\C)CCC(=O)O)C(=O)OC2` [MPA, mycophenolic acid], in the assay on H0-1 cells (96 h), the “HLA Class I antigen gene expression” value was “did not significantly alter”, the fibronectin expression entry is “most effective single agents”, the “induction of gro/MGSA gene expression” value was “did not” and the tenascin expression result was “enhanced tenascin expression”. Moreover, in the assay on H0-1 cells, the “c-jun and jun-B expression” value is given as “increase”; the c-myc expression result is given as “downregulated”. For the same compound, the mda-7 expression entry with mda-7 was “Increased expression; also recorded: induced”. The mda-5 expression entry in the assay with mda-5 is recorded as “No change in expression”. Also, the mda-8 expression result with mda-8 is on record as “No change in expression”. For the same compound, the mda-4 expression result in the assay on mda-4 is “No or only a small change in expression”. In the assay with mda-9, the mda-9 expression entry is listed as “No change in mda-9 expression”. The “Growth Suppression (reversible)” value in assay [1] (Table 1) is 3+ (3+ = ~50 to 60% reduction in growth in comparison with untreated control cultures). For the same compound, in assay [1] (Table 2), the “Growth Suppression (reversible)” value is listed as “− (− = no significant change in growth (<10% reduction in growth in comparison with untreated control cultures))”. Further, the mda-6 expression entry in the assay with mda-6 was “no significant or reduced alteration in expression”.
As for “IFN-γ: Recombinant human immune interferon”, in the assay on H0-1 cells (96 h), the “HLA Class I antigen gene expression” value is “enhanced HLA Class I antigen expression”, the “HLA Class II antigen gene (HLA-DRβ) expression” value is on record as “enhanced expression”, the fibronectin expression result is “most effective single agents” and the “induction of gro/MGSA gene expression” value is “did not induce gro/MGSA expression”. In the assay with H0-1 cells (96 h), the tenascin expression entry is on record as “enhanced tenascin expression” and the β1 integrin expression result is “upregulation”. In addition, in the assay with H0-1 cells, the “c-jun and jun-B expression” value is “increase”; the c-myc expression result is on record as “increased c-myc expression”. In addition, the mda-7 expression result with mda-7 was “No induction in mda-7 expression; also recorded: does not result in significant mda-7 expression”. Moreover, in the assay with mda-5, the mda-5 expression entry is given as “Enhanced expression; also recorded: induced”. Further, the mda-8 expression entry in the assay on mda-8 is “enhanced mda-8 expression; also recorded: increased mda-8 expression”. Further, the mda-4 expression result with mda-4 is recorded as “Increased expression”. In addition, the mda-9 expression entry in the assay on mda-9 is given as “No change in mda-9 expression”. For the same compound, the “Growth Suppression (reversible)” value in assay [1] (Table 2) is on record as 2+ (2+ = ~40% reduction in growth in comparison with untreated control cultures). For the same compound, in the assay on mda-6, the mda-6 expression result is “no significant or reduced alteration in expression”.
